Data set [1] can be described thus: Solubility testing in buffer (HPLC-UV). In kind it is physicochemical. Here is the method:
Prior to the testing of solubility and stability of a peptide batch, its purity (HPLC-UV) was determined. […] Therefore, solutions from solid samples were prepared in different buffer systems with a concentration of 10 mg/mL compound based on the previously determined % purity. HPLC-UV was performed after 2 h of gentle agitation from the supernatant, which was obtained by 20 min of centrifugation at 4500 rpm. […] This analysis also served as starting point (t0) for the stability testing.

A short description of data set [2]: Stability testing in solution, 7 days at 40° C. (HPLC-UV). Particulars: for Stability pH 4.5: pH 4.5, 7 days at 40° C. in solution; for Stability pH 7.4: pH 7.4, 7 days at 40° C. in solution. The format is physicochemical. Here is the method:
After that time course, the sample was centrifuged for 20 min at 4500 rpm and 0.2 μL of the supernatant were analysed with HPLC-UV.
For determination of the amount of the remaining peptide, the peak areas of the target compound at t0 and t7 were compared, resulting in “% remaining peptide”, following the equation % remaining peptide=[(peak area peptide t7)×100]/peak area peptide t0.
The stability is expressed as “% remaining peptide”.

The target in a further data set is T1, human GLP-1 receptor (Homo sapiens, UniProt P43220).
T1 construct: expressed in transfected cells; host or cells: HEK-293
T1 sequence (P43220 24-463): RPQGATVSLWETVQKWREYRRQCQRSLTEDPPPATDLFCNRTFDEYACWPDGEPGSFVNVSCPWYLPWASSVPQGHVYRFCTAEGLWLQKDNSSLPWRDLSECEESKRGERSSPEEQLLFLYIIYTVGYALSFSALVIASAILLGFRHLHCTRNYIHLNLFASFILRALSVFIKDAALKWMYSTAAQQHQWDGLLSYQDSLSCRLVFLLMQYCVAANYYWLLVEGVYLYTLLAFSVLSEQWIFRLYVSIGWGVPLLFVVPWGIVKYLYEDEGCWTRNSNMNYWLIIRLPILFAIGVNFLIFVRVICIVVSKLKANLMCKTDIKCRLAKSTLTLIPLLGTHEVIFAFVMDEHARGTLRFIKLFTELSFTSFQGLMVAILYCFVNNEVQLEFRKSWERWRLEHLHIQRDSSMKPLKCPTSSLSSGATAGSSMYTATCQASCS
As to the kind of experiment: cAMP response of HEK-293 cells stably expressing human GLP-1 receptor (HTRF). The format is cell-based. Particulars: read-out: EC50 hGLP-1R. The procedure: For preparation, cells were split into T175 culture flasks and grown overnight to near confluency in medium (DMEM/10% FBS). Medium was then removed and cells washed with PBS lacking calcium and magnesium, followed by proteinase treatment with accutase (Sigma-Aldrich cat. no. A6964). Detached cells were washed and resuspended in assay buffer (1×HBSS; 20 mM HEPES, 0.1% BSA, 2 mM IBMX) and cellular density determined. They were then diluted to 400000 cells/ml and 25 μl-aliquots dispensed into the wells of 96-well plates. For measurement, 25 μl of test compound in assay buffer was added to the wells, followed by incubation for 30 minutes at room temperature. […] Potencies of peptidic compounds at the GLP-1, glucagon and GIP receptors were determined by exposing cells expressing human glucagon receptor (hGlucagon R), human GIP receptor (hGIP-R) or human GLP-1 receptor (hGLP-1R) to the listed compounds at increasing concentrations and measuring the formed cAMP as described in Methods.

Setting [3] is: pH 4.5, target concentration 10 mg/ml, read-out: solubility pH 4.5.
Setting [4] is: pH 7.4, target concentration 10 mg/ml, read-out: solubility pH 7.4.

We go through four molecules from patent US9758561B2 (priority 2014, dated 2017).

≈ marks a conversion by molar mass, not a printed value. Like-named read-outs stand apart in the source and are kept apart here.

The term solubility denotes how much of the substance goes into solution per volume. `CCCCCCCCCCCCCCCC(=O)N[C@@H](CCC(=O)N[C@@H](CCC(=O)NCCCC[C@H](NC(=O)[C@H](CCC(N)=O)NC(=O)[C@H](CCCCN)NC(=O)[C@H](CO)NC(=O)[C@H](CC(C)C)NC(=O)[C@H](CC(=O)O)NC(=O)[C@H](CO)NC(=O)[C@@H](NC(=O)[C@H](Cc1ccccc1)NC(=O)[C@@H](NC(=O)CNC(=O)[C@H](CCC(N)=O)NC(=O)[C@@H](CO)NC(=O)[C@@H](N)Cc1c[nH]cn1)[C@@H](C)O)[C@@H](C)O)C(=O)N[C@@H](CC(=O)O)C(=O)N[C@@H](CCC(=O)O)C(=O)N[C@@H](CCC(=O)O)C(=O)N[C@@H](C)C(=O)N[C@@H](C)C(=O)N[C@@H](CCCNC(=N)N)C(=O)N[C@@H](CC(C)C)C(=O)N[C@@H](Cc1ccccc1)C(=O)N[C@H](C(=O)N[C@@H](CCC(=O)O)C(=O)N[C@@H](Cc1c[nH]c2ccccc12)C(=O)N[C@@H](CC(C)C)C(=O)NC(C)(C)C(=O)N[C@@H](C)C(=O)N[C@H](C)C(=O)NCC(=O)N1CCC[C@H]1C(=O)N[C@@H](CO)C(=O)N[C@@H](CO)C(=O)NCC(=O)N[C@@H](C)C(=O)N1CCC[C@H]1C(=O)N1CCC[C@H]1C(=O)N1CCC[C@H]1C(=O)N[C@@H](CO)C(N)=O)[C@@H](C)CC)C(=O)O)C(=O)O` [SEQ ID NO: 12, H-dSer-Q-G-T-F-T-S-D-L-S-K-Q-K(γE-γE-x53)-D-E-E-A-A-R-L-F-I-E-W-L-Aib-A-dAla-G-P-S-S-G-A-P-P-P-S-NH2]: the solubility at 2 h in data set [1] (setting [3]) was 2000 µg/mL (≈ 435 µM). Moreover, the solubility at 2 h in data set [1] (setting [4]) was over 8000 µg/mL. Also, in data set [2], the “Stability pH 4.5” value worked out at 85.6 % remaining peptide and the “Stability pH 7.4” value turned out to be 90.6 % remaining peptide.
Broadly, the EC50 is the midpoint of the concentration-response curve. For the molecule `CCCCCCCCCCCCCCCC(=O)N[C@@H](CCC(=O)N[C@@H](CCC(=O)NCCCC[C@H](NC(=O)[C@H](CCC(N)=O)NC(=O)[C@H](CCCCN)NC(=O)[C@H](CO)NC(=O)[C@H](CC(C)C)NC(=O)[C@H](CC(=O)O)NC(=O)[C@H](CO)NC(=O)[C@@H](NC(=O)[C@H](Cc1ccccc1)NC(=O)[C@@H](NC(=O)CNC(=O)[C@H](Cc1c[nH]cn1)NC(=O)[C@@H](CO)NC(=O)[C@@H](N)Cc1c[nH]cn1)[C@@H](C)O)[C@@H](C)O)C(=O)N[C@@H](CC(=O)O)C(=O)N[C@@H](CCC(=O)O)C(=O)N[C@@H](CCC(=O)O)C(=O)N[C@@H](C)C(=O)N[C@@H](C)C(=O)N[C@@H](CCCNC(=N)N)C(=O)N[C@@H](CC(C)C)C(=O)N[C@@H](Cc1ccccc1)C(=O)N[C@H](C(=O)N[C@@H](CCC(=O)O)C(=O)N[C@@H](Cc1c[nH]c2ccccc12)C(=O)N[C@@H](CC(C)C)C(=O)NC(C)(C)C(=O)N[C@@H](CCCCN)C(=O)N[C@H](C)C(=O)NCC(=O)N1CCC[C@H]1C(=O)N[C@@H](CO)C(=O)N[C@@H](CO)C(=O)NCC(=O)N[C@@H](C)C(=O)N1CCC[C@H]1C(=O)N1CCC[C@H]1C(=O)N1CCC[C@H]1C(=O)N[C@@H](CO)C(N)=O)[C@@H](C)CC)C(=O)O)C(=O)O` [SEQ ID NO: 26, H-dSer-H-G-T-F-T-S-D-L-S-K-Q-K(γE-γE-x53)-D-E-E-A-A-R-L-F-I-E-W-L-Aib-K-dAla-G-P-S-S-G-A-P-P-P-S-NH2], the EC50 on human GLP-1 receptor (Table 6) was 2 pM. Also, the solubility at 2 h in data set [1] (setting [3]) turned out to be 6800 µg/mL (≈ 1460 µM). The solubility at 2 h in data set [1] (setting [4]) was 6700 µg/mL (≈ 1440 µM). Besides, in data set [2], the “Stability pH 4.5” value was determined as 92.7 % remaining peptide and the “Stability pH 7.4” value turned out to be 96.6 % remaining peptide.
Turning to `CCCCCCCCCCCCCCCC(=O)N[C@@H](CCC(=O)N[C@@H](CCC(=O)NCCCC[C@H](NC(=O)[C@H](CCC(N)=O)NC(=O)[C@H](CCCCN)NC(=O)[C@H](CO)NC(=O)[C@H](CC(C)C)NC(=O)[C@H](CC(=O)O)NC(=O)[C@H](CO)NC(=O)[C@@H](NC(=O)[C@H](Cc1ccccc1)NC(=O)[C@@H](NC(=O)CNC(=O)[C@H](CCC(N)=O)NC(=O)[C@H](CO)NC(=O)[C@@H](N)Cc1c[nH]cn1)[C@@H](C)O)[C@@H](C)O)C(=O)N[C@@H](CC(=O)O)C(=O)N[C@@H](CCC(=O)O)C(=O)N[C@@H](CCC(=O)O)C(=O)N[C@@H](C)C(=O)N[C@@H](C)C(=O)N[C@@H](CCCNC(=N)N)C(=O)N[C@@H](CC(C)C)C(=O)N[C@@H](Cc1ccccc1)C(=O)N[C@H](C(=O)N[C@@H](CCC(=O)O)C(=O)N[C@@H](Cc1c[nH]c2ccccc12)C(=O)N[C@@H](CC(C)C)C(=O)N[C@@H](CCCCN)C(=O)N[C@@H](C)C(=O)NCC(=O)NCC(=O)N1CCC[C@H]1C(=O)N[C@@H](CO)C(=O)N[C@@H](CO)C(=O)NCC(=O)N[C@@H](C)C(=O)N1CCC[C@H]1C(=O)N1CCC[C@H]1C(=O)N1CCC[C@H]1C(=O)N[C@@H](CO)C(N)=O)[C@@H](C)CC)C(=O)O)C(=O)O` [SEQ ID NO: 33, H-S-Q-G-T-F-T-S-D-L-S-K-Q-K(γE-γE-x53)-DEEAARLFIEWLKAGGPSSGAPPPS-NH2, reference compound], the EC50 on human GLP-1 receptor (Table 8, comparison Aib vs. Lys in position 27) was 1 pM.
Consider `CCCCCCCCCCCCCCCC(=O)N[C@@H](CCC(=O)N[C@@H](CCC(=O)NCCCC[C@H](NC(=O)[C@H](CCC(N)=O)NC(=O)[C@H](CCCCN)NC(=O)[C@H](CO)NC(=O)[C@H](CC(C)C)NC(=O)[C@H](CC(=O)O)NC(=O)[C@H](CO)NC(=O)[C@@H](NC(=O)[C@H](Cc1ccccc1)NC(=O)[C@@H](NC(=O)CNC(=O)[C@H](CCC(N)=O)NC(=O)[C@@H](CO)NC(=O)[C@@H](N)Cc1c[nH]cn1)[C@@H](C)O)[C@@H](C)O)C(=O)N[C@@H](CC(=O)O)C(=O)N[C@@H](CCC(=O)O)C(=O)N[C@@H](CCC(=O)O)C(=O)N[C@@H](C)C(=O)N[C@@H](C)C(=O)N[C@@H](CCCNC(=N)N)C(=O)N[C@@H](CC(C)C)C(=O)N[C@@H](Cc1ccccc1)C(=O)N[C@H](C(=O)N[C@@H](CCC(=O)O)C(=O)N[C@@H](Cc1c[nH]c2ccccc12)C(=O)N[C@@H](CC(C)C)C(=O)NC(C)(C)C(=O)N[C@@H](CCCCN)C(=O)N[C@H](C)C(=O)NCC(=O)N1CCC[C@H]1C(=O)N[C@@H](CO)C(=O)N[C@@H](CO)C(=O)NCC(=O)N[C@@H](C)C(=O)N1CCC[C@H]1C(=O)N1CCC[C@H]1C(=O)N1CCC[C@H]1C(=O)N[C@@H](CO)C(N)=O)[C@@H](C)CC)C(=O)O)C(=O)O` [SEQ ID NO: 24, H-dSer-Q-G-T-F-T-S-D-L-S-K-Q-K(γE-γE-x53)-D-E-E-A-A-R-L-F-I-E-W-L-Aib-K-dAla-G-P-S-S-G-A-P-P-P-S-NH2], for which the EC50 on human GLP-1 receptor (Table 6) was found to be 2.4 pM. Further, in data set [1] (setting [3]), the solubility at 2 h was over 8000 µg/mL. Moreover, the solubility at 2 h in data set [1] (setting [4]) stood at 7000 µg/mL (≈ 1500 µM). Besides, in data set [2], the “Stability pH 4.5” value turned out to be 81.8 % remaining peptide and the “Stability pH 7.4” value is recorded as 95.4 % remaining peptide.
